Experimental data reported in patent US20040106685A1, “Method of preventing and/or treating asthma using PBPB” (COUNCIL OF SCIENTIFIC & INDUSTRIAL RESEARCH, priority 2002, published 2004).

Columns and labels:
Type in all cases: in vivo, BALB/c male mice
IFN-gamma, IL-4 and IL-5 = test: Cytokines IFN-gamma, IL-4 and IL-5 in BAL fluid by Elisa kits; details: for IL-4 in BAL fluid / IL-5 in BAL fluid / IFN-γ in BAL fluid: mean SEM, n = 4; for IL-4 in BAL fluid: sensitized 143.0 ± 3.0; for IL-5 in BAL fluid: sensitized 158.7 ± 22.5; for IFN-γ in BAL fluid: sensitized 162.0 ± 45.2; for IFN-γ:IL-4 ratio in BAL fluid: sensitized 1.1
Description: (§1) In another embodiment of the present invention, wherein after testing the compound for the preventive as well as for therapeutic values in intact conscious mice, mice were sacrificed for collecting the blood and bronchoalveolar lavage (bat) fluid to measure the levels of IgE, cytokines 11-4, IL-5 and IFN-y and homophile. Ovalbumin specific IgE levels m the sera and the levels of IL-4, IL-5 and IFN-y in the BAL fluid were measured by Elisa kits. The prevalence of eosinophils was determined in BAL fluid by flow cytometry.
(§2) BALB/c male mice, eight-ten weeks old, weighing 18-22 grams were acclimatized for one week under the laboratory conditions. Mice were sensitized by injecting intraperitoneally 0.2 ml of saline containing 10 micrograms ovalbumin (ova) (sigma, USA) adsorbed on 2 mg aluminum hydroxide gel on days 0, 7 and 14 followed by aerosol inhalation for 5 consecutive days, from day 19 to 23 with 2% ova (in saline w/v) for 30 minutes daily. Aerosol challenge was performed by placing mice in Plexiglas chamber (20×20×10 cm^3) and ova or saline alone was aerosolized using a nebulizer (devilbiss, model 645, USA) at an airflow rate of 7 litre/minute, sham-sensitized mice received 0.2 ml of saline containing only 2 mg al(oh)3 on days, 0, 7 and 14 followed by inhalation of aerosol of saline without ova for 5 consecutive days.
(§3) The compound PBPB (sigma, USA) was dissolved in absolute alcohol (10 mg/ml). PBPB (20ul by volume) was given orally to each mouse. To evaluate the effect of PBPB on sensitization and the development of impaired airway sensitivity (preventive effect, FIG. 1a), five groups (six mice in each) of mice were used. One group was sham-sensitized control and another group was kept as sensitized control. The remaining three groups were given orally three different concentrations of PBPB (0.1, and 10 mg/kg body weight) daily starting from first to the last day of the sensitization the sham-sensitized and sensitized control mice were given only vehicle (20 ul alcohol) in a similar fashion. Initial measurements of specific airway conductance and airway reactivity of all the animals were carried out before starting the experiment ovalbumin induced airway constriction and airway reactivity were measured after sensitization protocol was over the measurements were done as described below (example 3,4 and 5).
(§4) To examine the therapeutic effect of PBPB on sensitized mice (therapeutic effect, FIG. ib), mice were sensitized as before without PBPB treatment and airway constriction to ova and airway reactivity to methacholine were measured as described below animals showing at least 40% fall in specific airway conductance to ova aerosol challenge were selected for this study the sensitized mice were randomly divided into 4 groups of 6 mice in each group three groups of mice were given daily three different concentrations of PBPB in 20 ul of alcohol adjusted to contain PBPB in a dose of 0.1, and 10 mg/kg body weight respectively for week fourth group was fed only 20 ul alcohol for one week to be used as sensitized control airway constriction and airway reactivity were again measured thereafter.
The cytokines IFN-gamma, IL-4 and IL-5 were measured in the BAL fluid by enzyme-linked ImmunoSorbent assay (Elisa) kits (BD pharmingen, USA) as per the manufacturer's protocol.

eosinophils in BAL fluid = test: Eosinophils in BAL fluid by flow cytometry
Description: as §1, §2
(§5) The compound PBPB (sigma, USA) was dissolved in absolute alcohol (10 mg/ml). PBPB (20ul by volume) was given orally to each mouse. […] Initial measurements of specific airway conductance and airway reactivity of all the animals were carried out before starting the experiment ovalbumin induced airway constriction and airway reactivity were measured after sensitization protocol was over the measurements were done as described below (example 3,4 and 5). […]
The levels of eosinophils in BAL fluid were detected by flowcytometry (facsvantage, Becton Dickinson, USA) using the method described by bedner et al (1999). The cells were gated on the basis of the size and fluorescence (FSC versus FL 1) and the percentage of the gated cells was determined by cell quest software. […]

[1] = system: mouse model of asthma (ova sensitized mice); test: Ova-induced airway constriction (fall of SGaw) in sensitized mice, dual-chamber whole body plethysmography
Description: as §2, §3, §4
Airway calibre was measured in the term of specific airway conductance (SGaw). SGaw is a measure of the airway caliber and was estimated using a dual-chamber whole body plethysmograph (Agrawal, 1981). The dual-chamber whole body plethysmograph was designed in our laboratory to suit the size of mouse (FIG. 2). The change in the box pressure in response to breathing of the housed mouse was determined with a transducer (validyne mp 45+2 cmh20) and carrier amplifier (validyne model CD 15 carrier demodulator) that were connected to the x-channel of an oscilloscope Tektronix, model 6116, USA). […]
Animals were acclimatized in the body box in the beginning of the study and at the time of recording the loop, each individual mouse was housed for 10 minutes to set the basal loop correctly. Values of the slopes were recorded on getting at least three similar loops. […]

[2] = system: mouse model of asthma (ova sensitized mice); test: Airway reactivity to methacholine (MCh PD35) in sensitized mice
Description: as §2
as §3, with “The remaining three groups were given orally three different concentrations of PBPB (0.1, and 10 mg/kg body weight) daily starting from first to the last day of the sensitization the sham-sensitized and sensitized control mice were given only vehicle (20 ul alcohol) in a similar fashion.” left out
as §4
Airway calibre was measured in the term of specific airway conductance (SGaw). […] The change in the box pressure in response to breathing of the housed mouse was determined with a transducer (validyne mp 45+2 cmh20) and carrier amplifier (validyne model CD 15 carrier demodulator) that were connected to the x-channel of an oscilloscope Tektronix, model 6116, USA). […]

Ova-specific IgE = test: Serum ova-specific IgE levels by Elisa
Description: as §1, §2, §5
Serum IgE levels were measured in all the groups of mice by Elisa (FIG. 7). Ova-specific IgE levels were measured by enzyme linked immuno sorbent assay (Elisa). […]

[3] = PBPB 1 mg/kg body weight after sensitization
[4] = PBPB 1 mg/kg body weight during sensitization

For `O=C(CBr)c1ccc(Br)cc1` [PBPB, parabromophenacyl bromide], the “IL-4 in BAL fluid” value (IFN-gamma, IL-4 and IL-5; [3]) was 42.4 ± 4.9 pg/mL, the “IL-5 in BAL fluid” value (IFN-gamma, IL-4 and IL-5; [3]) was 53.4 ± 2.2 pg/mL and the “IFN-γ in BAL fluid” value (IFN-gamma, IL-4 and IL-5; [3]) was 425.1 ± 54.0 pg/mL. For the same compound, the “IFN-γ:IL-4 ratio in BAL fluid” value (IFN-gamma, IL-4 and IL-5; [3]) was 10, the “IL-4 in BAL fluid” value (IFN-gamma, IL-4 and IL-5; [4]) was 91.0 ± 13.2 pg/mL and the “IL-5 in BAL fluid” value (IFN-gamma, IL-4 and IL-5; [4]) was 75.1 ± 7.4 pg/mL. For the same compound, the “IFN-γ in BAL fluid” value (IFN-gamma, IL-4 and IL-5; [4]) was 402 ± 14.4 pg/mL, the “IFN-γ:IL-4 ratio in BAL fluid” value (IFN-gamma, IL-4 and IL-5; [4]) was 4.4 and the effective dose (eosinophils in BAL fluid; administration to mice during and after sensitization, inhibition of inflammation (eosinophils in BAL fluid)) was 1 mg/kg body weight. For the same compound, the “levels of eosinophils in BAL fluid” value (eosinophils in BAL fluid; preventive: oral 1 mg/kg body weight during sensitization) was “prevented the rise in the eosinophils levels”, the “levels of eosinophils in BAL fluid” value (eosinophils in BAL fluid; therapeutic: 1 mg/kg body weight in already sensitized mice, p<0.01 vs vehicle treated sensitized mice) was “reduced the levels of eosinophils significantly” and the “fall of SGaw level from basal level after ova challenge” value ([1]; preventive: oral 0.1 mg PBPB/kg body weight during sensitization, sensitized control fall 48%) was 17%. The “fall of SGaw after ova challenge, effect of further dose increase” value ([1]; preventive: oral 'lo mg/kg body weight' during sensitization) was “did not show any additional effect”, the “fall of SGaw from basal levels after ova challenge” value ([1]; preventive: oral 'mg PBPB/kg body weight' (dose figure missing) during sensitization, sensitized control fall 48%) was 4% and the “SGaw levels recovered, of basal SGaw levels” value ([1]; therapeutic: oral for one week to already sensitized mice, 10 mg PBPB/kg body weight) was 96%. For the same compound, the “SGaw levels recovered, of normal basal levels” value ([1]; therapeutic: oral for one week to already sensitized mice, dose 'mg/kg body weight' (figure missing)) was 86%, the “MCh PD35, of its initial values” ([2]; preventive: treatment during sensitization, 10 mg/kg body weight) was 115% and the “MCh PD35 recovery, of its initial levels” value ([2]; preventive: treatment during sensitization, dose 'mg/kg body weight' (figure missing), 24 hours after last ova challenge) was 93%. For the same compound, the “MCh PD35 recovered, of the basal value” ([2]; therapeutic: oral to sensitized mice already having airway hyper reactivity, 1 mg/kg body weight) was “over 81%”, the “MCh PD35 recovery, of the basal value” ([2]; therapeutic: oral to sensitized mice already having airway hyper reactivity, 10 mg/kg body weight) was 94% and the “serum IgE levels, effect of higher dose” value (Ova-specific IgE; preventive: 10 mg of PBPB/kg body weight during sensitization) was “did not show additional effect”. For the same compound, the “mean serum IgE level lower compared to sensitized animals” value (Ova-specific IgE; preventive: oral 1 mg/kg body weight during sensitization, sensitized mice 384±22.8 ng/ml) was 40% and the “fall in serum IgE levels compared to vehicle treated sensitized mice” value (Ova-specific IgE; therapeutic: 1 mg/kg body weight fed for one week to already sensitized mice, p<0.05) was 47%.
